“And” between values parts separate entries of the source, which are not always exact repeats. Equal entries are not always repeated.
How the values were obtained:
[1] = tested on: LPS-induced inflammatory pain; test: LPS-induced inflammatory pain model, paw pressure test; format: in vivo, Male Sprague-Dawley rats; details: 60 min after LPS
Procedure: Male Sprague-Dawley rats were housed in groups of four, in 26x41 cm cages, at a temperature of 23±1°C, with a 12-hour circadian cycle, and water/food "ad libitum" (standard diet). LPS (10 µg in 50 µl of 0.9% NaCl, Sigma-Aldrich) was injected into the plantar surface of the hind paw of the rat following isoflurane anesthesia. Control animals were treated with vehicle alone (0.9% NaCl). Ten minutes before the LPS injection, the compounds to be tested or the vehicle alone (1% CMC) were administered orally, according to the following treatment groups (N=8 where not otherwise specified): • CTRL (healthy animals injected with 0.9% NaCl) • VEIC (animals injected with LPS and treated with vehicle, N=9) • MLX30 (animals injected with LPS and treated with meloxicam 30 mg/kg) • MLX3 (animals injected with LPS and treated with meloxicam 3 mg/kg) • PEA10 (animals injected with LPS and treated with PEA 10 mg/kg) • PEA10+MLX3 (animals injected with LPS and treated with PEA 10 mg/kg + meloxicam 3 mg/kg) • PEA5 (animals injected with LPS and treated with PEA 5 mg/kg) • PEA5 + MLX3 (animals injected with LPS and treated with PEA 5 mg/kg + meloxicam 3 mg/kg).
Inflammatory pain induced by LPS injection was measured by paw pressure test. Briefly, before and sixty min after LPS injection, increasing pressure at a constant rate (32 g/s) was applied to the ipsilateral paw of the rat using a non-sharp conical support. […] An analgesimeter (Ugo Basile, Varese) was used for this purpose. The results were expressed in terms of analgesic potency, defined as percentage inhibition (mean ± SEM) of inflammatory pain induced by LPS and calculated according to the formula: 100*(treatm-VEIC)/(CTRL-VEIC).
The results were analyzed via Generalized Linear Model (GLM) followed by post-hoc analysis based on Tukey-Kramer correction for multiple comparisons. […] In order to verify whether the effect of PEA and meloxicam was synergistic, it was analyzed whether the extent of the inhibition of inflammatory pain by LPS was greater for the association of the two substances compared to the substances used individually. […] All analyses were performed using SAS software, version 9.4 (SAS Institute, Cary, NC, USA). P value < 0.05 was considered significant.

[2] = tested on: CFA-induced inflammatory pain; test: CFA-induced inflammatory pain model, paw pressure test; format: in vivo, male Sprague-Dawley rats; details: meloxicam 3 mg/kg and/or micronized PEA 10 mg/kg, single administration per os on day 7 after CFA; T0-T60; p = 0.1405 (meloxicam), p = 0.9588 (PEA), p < 0.0001 (combination)
Description: In the in vivo experimentation, male Sprague-Dawley rats (200-250 g) (Envigo, Varese, Italy) fed "ad libitum" and housed in cages with a controlled sleep/wake cycle were used.
Before the start of the study, the animals were subjected to a 1-week acclimatization period at the Center for Laboratory Animal Sheltering (Ce.S.A.L.) of the University of Florence, following all experimental procedures and protocols compliant with the principles of care and welfare of laboratory animals approved by the Italian Ministry of Health (Italian Legislative Decree 2014/26), European directives (EU Directive 2010/63) and the ARRIVE guidelines. […]
All animals were subjected to the paw pressure test at the level of the ipsilateral paw, performed before (T0) or after 15, 30, 45 and 60 minutes after the single administration of the treatment (T15, T30, T45 and T60, respectively). In particular, the nociceptive threshold was calculated with an analgesiometer (Ugo Basile, Varese, Italy) by applying an increasing pressure at constant speed (32 g/s) by means of a non-pointed conical support on the dorsal surface of the ipsilateral paw with respect to the injection of CFA (or vehicle). […]
The AUC was analyzed by a two-way factor analysis of variance (2x2 ANOVA), after plotting the mean values, according to the procedure shown by Slinker BK. […] The values were expressed as mean ± standard error mean (SEM). […]

[3] = tested on: inflammatory pain induced by Carrageenan; test: Carrageenan-induced inflammatory pain model, Von Frey test; format: in vivo, male Sprague-Dawley rats; details: PEA 3 mg/kg and/or MLX 0.05 mg/kg orally 30 minutes before CAR; 3 and 5 hours after CAR injection; combination p=0.0084 and p=0.0004 vs vehicle
Procedure: All analyses were performed using SAS software, version 9.4 (SAS Institute, Cary, NC, USA). P value < 0.05 was considered significant.

[4] = administered in ultra-micronized form; Nestmann Food Sci Nutr. 2016; cited from earlier work

Row | Structure (SMILES) | analgesic potency, percentage inhibition of inflammatory pain induced by LPS (media) ([1]; PEA 5 mg/kg orally 10 min before LPS) | analgesic potency, percentage inhibition of inflammatory pain induced by LPS (media) ([1]; PEA 10 mg/kg orally 10 min before LPS) | effect on the LPS-induced drop of the nociceptive threshold vs LPS vehicle ([1]; meloxicam at 3 mg/kg and 30 mg/kg, PEA at 5 mg/kg and 10 mg/kg, alone or associated with low-dose meloxicam, p<0.0001 for all comparisons) | inflammatory pain tolerance threshold (paw pressure test), effect with respect to CFA [2] | analgesic effect vs vehicle (Von Frey test, paw retraction) [3] | dose up to which free of acute and sub-chronic toxicity [4] [mg/kg daily] | analgesic potency, percentage inhibition of inflammatory pain induced by LPS (media) ([1]; meloxicam 3 mg/kg orally 10 min before LPS, listed as MLX) | analgesic potency, percentage inhibition of inflammatory pain induced by LPS (media) ([1]; meloxicam 30 mg/kg orally 10 min before LPS, listed as MLX)
1 | CCCCCCCCCCCCCCCC(=O)NCCO [PEA, N-palmitoylethanolamide] | 26,46% and 26,5% | 54,24% and 54,2% | significantly counteracted the pro-algic effect of LPS | no significant effect | no analgesic effect significantly different from the vehicle | ≥ 1000 |  | 
2 | Cc1cnc(NC(=O)C2=C(O)c3ccccc3S(=O)(=O)N2C)s1 [meloxicam] |  |  |  | no significant effect |  |  | 46,12% and 46,1% | 50,49% and 50,5%
